Assay results taken from article PMC8343220, “The selectivity of α‐adrenoceptor agonists for the human α1A, α1B, and α1D‐adrenoceptors” (Pharmacology Research & Perspectives, 2021).
Blank lines part the entries; values can stand above or below the compound they belong to.

Key:
[1] = target: T1, human α1A‐adrenoceptor (Homo sapiens, UniProt P35348); test: ^3H‐prazosin whole‐cell radioligand binding, CHO‐α1A cells; details: for Kd: CHO‐α1A cells, given as log KD (negative), mean ± SEM; for Affinity selectivity ratio α1A vs α1B: higher affinity for α1A than α1B; for Affinity selectivity ratio α1A vs α1D: higher affinity for α1A than α1D
T1 construct: expressed in transfected cells; host or cells: CHO-K1
T1 sequence (P35348 1-466): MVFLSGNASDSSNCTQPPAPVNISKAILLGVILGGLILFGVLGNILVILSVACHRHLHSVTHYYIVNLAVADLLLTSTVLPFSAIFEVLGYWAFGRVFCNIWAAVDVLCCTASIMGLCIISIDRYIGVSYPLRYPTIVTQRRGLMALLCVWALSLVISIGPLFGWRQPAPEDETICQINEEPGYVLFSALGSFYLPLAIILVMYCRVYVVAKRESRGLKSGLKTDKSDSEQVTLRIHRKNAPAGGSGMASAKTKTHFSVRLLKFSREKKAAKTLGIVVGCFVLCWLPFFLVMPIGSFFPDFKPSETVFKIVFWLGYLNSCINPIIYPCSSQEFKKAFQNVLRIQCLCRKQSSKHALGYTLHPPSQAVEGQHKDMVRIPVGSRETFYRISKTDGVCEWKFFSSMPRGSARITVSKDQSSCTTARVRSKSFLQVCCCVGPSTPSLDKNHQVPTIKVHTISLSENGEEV

[2] = test system: parental CHO cell line without any transfected receptors; test: Intracellular calcium mobilization, parent CHO cells without transfected receptors; assay type: cell-based, Chinese hamster; details: Cricetulus griseus; CHO cells without transfected receptors; response at maximum concentration used (c2), as % of ionomycin (10μM) response; mean ± s.e.m.; read-out: Intracellular calcium release % ionomycin
[3] = target: T1, human α1A‐adrenoceptor; test: ERK1/2‐phosphorylation (Surefire Alphascreen), CHO‐α1A cells; assay type: cell-based; details: CHO‐α1A cells, ^a bi‐phasic: initial stimulatory part; for EC50: 2–4 min, ^b also active in parent CHO cells, read-out: ERK1/2‐phosphorylation Log EC50 (converted); for ERK1/2‐phosphorylation % PDBu: % of 10 µM PDBu
[4] = target: T1, human α1A‐adrenoceptor; test: ^3H‐cAMP accumulation, CHO‐α1A cells; assay type: cell-based; details: CHO‐α1A cells; for EC50: 5 h, read-out: cAMP accumulation Log EC50 (converted); for cAMP accumulation % forskolin: % of 10 µM forskolin response; for cAMP accumulation % forskolin at 100 µM: response at 100 μM ligand, no EC50 obtained
[5] = target: T1, human α1A‐adrenoceptor; test: ^3H‐cAMP accumulation in the presence of 10 μM forskolin, CHO‐α1A cells; assay type: cell-based; details: CHO‐α1A cells; for EC50: 10 μM forskolin, read-out: cAMP accumulation (in presence of forskolin) Log EC50 (converted); for cAMP accumulation (in presence of forskolin) Fold increase: fold increase of the forskolin response
[6] = Log KD α1A, ^3H‐prazosin whole cell binding

SMILES: N=C(N)NC(=O)Cc1c(Cl)cccc1Cl [Guanfacine]
Kd [1]: 4.68 µM | Affinity selectivity ratio α1A vs α1B [1]: 28.8 fold | Affinity selectivity ratio α1A vs α1D [1]: 2.5 fold | Emax [2]: 11.5 ± 2.9% | EC50 [3]: 34.7 nM | ERK1/2‐phosphorylation % PDBu [3]: 87.4 ± 2.3% | EC50 [4]: 2880 nM | cAMP accumulation % forskolin [4]: 41.1 ± 2.3% | EC50 [5]: 155 nM | cAMP accumulation (in presence of forskolin) Fold increase [5]: 2.22 ± 0.05 fold

SMILES: CC(CCc1ccc(O)cc1)NCCc1ccc(O)c(O)c1 (stereo not shown) [Dobutamine]
Kd [1]: 0.457 µM | Affinity selectivity ratio α1A vs α1B [1]: 7.9 fold | Affinity selectivity ratio α1A vs α1D [1]: 9.5 fold | EC50 [3]: 43.7 nM | ERK1/2‐phosphorylation % PDBu [3]: 85.5 ± 4.3% | EC50 [4]: 871 nM | cAMP accumulation % forskolin [4]: 11.9 ± 1.6% | EC50 [5]: 661 nM | cAMP accumulation (in presence of forskolin) Fold increase [5]: 1.98 ± 0.14 fold

SMILES: c1ccc(C2CC2)c(OCC2=NCCN2)c1 [Cirazoline]
Kd [1]: 0.676 µM | Affinity selectivity ratio α1A vs α1B [1]: 11.7 fold | Affinity selectivity ratio α1A vs α1D [1]: 4.4 fold | Emax [2]: 4.5 ± 0.8% | EC50 [3]: 0.955 nM | ERK1/2‐phosphorylation % PDBu [3]: 80.8 ± 3.6% | EC50 [4]: 123 nM | cAMP accumulation % forskolin [4]: 108.9 ± 6.5% | EC50 [5]: 10.7 nM | cAMP accumulation (in presence of forskolin) Fold increase [5]: 2.38 ± 0.15 fold

SMILES: CCNCC(O)c1cccc(O)c1 (stereo not shown) [Etilefrine]
Kd [1, 6]: 102 µM | Affinity selectivity ratio α1A vs α1B [1]: >9.8 fold | EC50 [3]: 145 nM | ERK1/2‐phosphorylation % PDBu [3]: 72.8 ± 7.0% | cAMP accumulation % forskolin at 100 µM [4]: 82.7 ± 5.5% | EC50 [5]: 1290 nM | cAMP accumulation (in presence of forskolin) Fold increase [5]: 2.17 ± 0.08 fold

Second part, the compound after the results:

Kd [1, 6]: 3.47 µM | Affinity selectivity ratio α1A vs α1B [1]: 12.9 fold | Affinity selectivity ratio α1A vs α1D [1]: 1.1 fold | EC50 [3]: 37.2 nM | ERK1/2‐phosphorylation % PDBu [3]: 82.1 ± 3.9% | EC50 [4]: 1660 nM | cAMP accumulation % forskolin [4]: 65.6 ± 6.5% | EC50 [5]: 123 nM | cAMP accumulation (in presence of forskolin) Fold increase [5]: 2.36 ± 0.10 fold
SMILES: Clc1ccc2nsnc2c1NC1=NCCN1 [Tizanidine]

Kd [1, 6]: 0.288 µM | Affinity selectivity ratio α1A vs α1B [1]: 6.3 fold | Affinity selectivity ratio α1A vs α1D [1]: 7.1 fold | EC50 [3]: 4.07 nM | ERK1/2‐phosphorylation % PDBu [3]: 90.9 ± 4.4% | EC50 [4]: 269 nM | cAMP accumulation % forskolin [4]: 57.9 ± 5.7% | EC50 [5]: 41.7 nM | cAMP accumulation (in presence of forskolin) Fold increase [5]: 2.18 ± 0.05 fold
SMILES: c1ccc2c(CC3=NCCN3)cccc2c1 [Naphazoline]

Kd [1]: 85.1 µM | Affinity selectivity ratio α1A vs α1B [1]: >11.7 fold | EC50 [3]: 97.7 nM | ERK1/2‐phosphorylation % PDBu [3]: 83.9 ± 4.1% | cAMP accumulation % forskolin at 100 µM [4]: 122.7 ± 9.8% | EC50 [5]: 813 nM | cAMP accumulation (in presence of forskolin) Fold increase [5]: 2.54 ± 0.11 fold
SMILES: C[C@H](N)[C@H](O)c1cccc(O)c1 [Metaraminol]

Kd [1, 6]: 23.4 µM | Affinity selectivity ratio α1A vs α1B [1]: >42.7 fold | Affinity selectivity ratio α1A vs α1D [1]: 6.5 fold | EC50 [3]: 27.5 nM | ERK1/2‐phosphorylation % PDBu [3]: 81.4 ± 4.5% | EC50 [4]: 4900 nM | cAMP accumulation % forskolin [4]: 120.0 ± 3.7% | EC50 [5]: 398 nM | cAMP accumulation (in presence of forskolin) Fold increase [5]: 2.19 ± 0.09 fold
SMILES: COc1ccc(OC)c(C(O)C(C)N)c1 (stereo not shown) [Methoxamine]
